Values joined by “and” are separate entries in the source; they are usually repeats but may differ in a detail not shown here. Identical values can stand only once.
Experiments:
[1] = test system: non small cell lung cancer (NSCLC) xenograft models; type: in vivo; details: for percentage of tumors with a T/C ratio<20%: share of models; for percentage of responses overall (T/C): share of models responding
Procedure: FIG. 1: Preclinical lung cancer study design: 22 non small cell lung cancer (NSCLC) xenograft models were derived from patients primary tumors directly after surgery; at low murine passages response to Sagopilone and standard chemotherapy was assessed and samples grouped into responders and non-responders. RNA from untreated control tumors was subjected to Affymetrix gene expression analysis for discrimination of gene expression levels at baseline with tumor response.
Lung cancer xenograft models were established by subcutaneously transplanting fresh tumor material from NSCLC patients into nude mice. Tumor types included pleomorphic carcinoma (7187, 7336), squamous cell carcinoma (7126, 7177, 7298, 7343, 7462, 7433, 7530), dedifferentiated carcinoma (7668), adenocarcinoma (7064, 7198, 7406, 7387, 7466, 7612) and small cell lung cancer ([…]).
Antitumor activity was determined using either the reduction in tumor area in treated versus control mice (T/C ratio), or the mean change in absolute tumor volume compared with volume at baseline (day of first treatment).
1° lung cancer biopsies obtained from patients with established cancer were transplanted into nude mice. Tumor growth curves for the treatment with Etoposide, Carboplatin, Gemcitabine, Taxol, Navelbine, Cetuximab, Erlotinib und Sagopilone were generated. Mutation status of p53 was analyzed in the models according to methods known in the art. Fourteen Sagopilone responders and eight Sagopilone non-responders were characterized in long-term experiments. A PBS control group was treated with PBS or Sagopilone for 24 hrs before sacrifice. RNA for Sagopilone responder and non-responder models were isolated according to methods known in the art and were hybridized onto arrays according to the manufacturer's instructions.

A549 NSCLC cells = test: A549 NSCLC xenograft in nude mice: Sagopilone combined with acetazolamide; type: in vivo; details: acetazolamide 40 mg/day p.o. with Sagopilone 6 or 8 mg/kg, FIG. 11
Procedure: FIG. 11: A549 NSCLC cells were xenotransplanted into nude mice. Mice were treated starting on day 7 after tumor transplantation as indicated: Sagopilone 6 mg/kg or 8 mg/kg were given on days 17, 32 and 45 after transplantation as indicated by arrows, acetazolamide 40 mg/day p.o. was given either daily or twice a day for five days starting on the day of Sagopilone administration (2 h before and 2 h after application of Sagopilone).

[2] = 22 NSCLC xenograft models, FIG. 4, count

## CC(=O)O[C@H]1C(=O)[C@@]2(C)[C@H]([C@H](OC(=O)c3ccccc3)[C@]3(O)C[C@H](OC(=O)[C@H](O)[C@@H](NC(=O)c4ccccc4)c4ccccc4)C(C)=C1C3(C)C)[C@]1(OC(C)=O)CO[C@@H]1C[C@@H]2O [Paclitaxel]
[1]; lung cancer xenografts
  percentage of tumors with a T/C ratio<20%: 56.2%
  percentage of responses overall (T/C): 81.2%

## C=CC[C@H]1C(=O)C(C)(C)[C@@H](O)CC(=O)O[C@H](c2ccc3sc(C)nc3c2)C[C@@H]2O[C@]2(C)CCC[C@H](C)[C@@H]1O [Sagopilone, (1S,3S,7S,10R,11S,12S,16R)-7,11-Dihydroxy-10-allyl-8,8,12,16-tetramethyl-3-(2-methyl-benzothiazol-5-yl)-4,17-dioxa-bicyclo[14.1.0]heptadecane-5,9-dione]
[1]; [2]
  samples with stable disease: three
  samples with tumor regression: Eleven
[1]; 22 NSCLC xenograft models, count of models
  models being non-responders (tumor progression), clinical criteria: eight
[1]; 22 lung cancer xenografts, tumor volume treated vs control, count of models
  models showing response / tumor growth inhibition by T/C value: 22 and 22 of 22
[1]; lung cancer xenografts, count of models
  number of NSCLC with a T/C ratio<20%: 12
[1]; lung cancer xenografts
  percentage of tumors with a T/C ratio<20%: 76.5%
[1]; model Lu7198, FIG. 3B
  response of xenograft model Lu7198: tumor progression
[1]; model Lu7298, FIG. 3A
  response of xenograft model Lu7298: tumor shrinkage
[1]; vs carboplatin, paclitaxel, gemcitabine, etoposide, vinorelbine, in words
  activity and tolerability compared with commonly used cytotoxic agents in NSCLC: superior activity and tolerability

## CC(=O)Nc1nnc(S(N)(=O)=O)s1 [acetazolamide]
A549 NSCLC cells
  effect of combination with an epothilone on tumor response: sensitization

## N.N.O=C([O-])C1(C(=O)[O-])CCC1.[Pt+2] [carboplatin]
[1]; lung cancer xenografts
  percentage of tumors with a T/C ratio<20%: 25.0%
  percentage of responses overall (T/C): 68.8%

## Nc1ccn([C@@H]2O[C@H](CO)[C@@H](O)C2(F)F)c(=O)n1 [gemcitabine]
[1]; lung cancer xenografts, b271, FIGS. 2a and 2b
  response (percentage of models), criteria not given: 61.5%
[1]; lung cancer xenografts
  percentage of tumors with a T/C ratio<20%: 47.0%
  percentage of responses overall (T/C): 80.0%
[1]; mouse, in vivo
  models in which at least 2 animals per group (n=6) could not be evaluated due to toxicity: seven
  toxicity in xenograft-bearing mice: marked toxicity
[1]; nude, mouse, in vivo
  models in which toxicity prevented evaluation of any mice: 2
